Experimental data from article PMC11808397, “Development of selective nanomolar cyclic peptide ligands as GBA1 enzyme stabilisers” (RSC Chemical Biology, 2025).

Experiments:
[1] = test system: rhGBA1 (Cerezyme) in plasma; assay: Stabilisation of rhGBA1 in plasma, 4-MU activity; type: biochemical, human; conditions: rhGBA1 10 nM in plasma, peptides 0.001-10 μM or Ambroxol 100-1000 μM, 0-120 minutes, 0.5% DMSO
Protocol: We then investigated whether peptides L4, D8, and D12 could stabilise rhGBA1 in plasma. […] The solutions were then incubated with 4-MU-β-D-Glu for an additional 30 minutes, and the remaining rhGBA1 activity was determined.
Specifically, high concentrations of all peptides (10–1 μM) led to enzyme binding but also GBA1 inhibition after short incubations (0 to 30 minutes). […] To discard potential degradation of D8 and D12 during plasma experiments, the peptides were incubated in plasma at 0.1 μM for 2 hours, followed by the addition of rhGBA1 to measure its activity. This was compared to controls where D8 and D12 were added to plasma and directly tested for GBA1 activity.
Fig. 3 Stabilisation of rhGBA1 (10 nM) in plasma by cyclic peptides D8 and D12. […] Control contained 0.5% DMSO. Error ranges depict standard deviations from n = 3 replicates, measured in technical duplicates. *p < 0.05, **p < 0.01, ***p < 0.001.
Selective Cyclic Peptide Ligands as GBA1 Stabilizers Katzy et al. curves were determined in triplicate using the Tycho NT.6 (NanoTemper), according to manufacturer […]
2.9. Cerezyme Stabilization studies in plasma […]
Specific GBA1 activity was determined as described above, with 25 µL of sample incubated for 30 min with 3.7 mM 4MU-β-Glc substrate.

[2] = target: T1, recombinant human GBA1 (rhGBA1, Cerezyme) (Homo sapiens, UniProt P04062, R534H); assay: Thermostability of rhGBA1, label-free differential scanning fluorimetry (Tycho NT.6); type: binding; conditions: rhGBA1 at 1 μM, 20 mM HEPES pH 7.0, 100 mM NaCl, 0.5% DMSO, 2 h room temperature; N. D. = not determined due to a lack of stabilisation effect
T1 construct: purchased Cerezyme
T1 sequence (P04062 40-536 R534H): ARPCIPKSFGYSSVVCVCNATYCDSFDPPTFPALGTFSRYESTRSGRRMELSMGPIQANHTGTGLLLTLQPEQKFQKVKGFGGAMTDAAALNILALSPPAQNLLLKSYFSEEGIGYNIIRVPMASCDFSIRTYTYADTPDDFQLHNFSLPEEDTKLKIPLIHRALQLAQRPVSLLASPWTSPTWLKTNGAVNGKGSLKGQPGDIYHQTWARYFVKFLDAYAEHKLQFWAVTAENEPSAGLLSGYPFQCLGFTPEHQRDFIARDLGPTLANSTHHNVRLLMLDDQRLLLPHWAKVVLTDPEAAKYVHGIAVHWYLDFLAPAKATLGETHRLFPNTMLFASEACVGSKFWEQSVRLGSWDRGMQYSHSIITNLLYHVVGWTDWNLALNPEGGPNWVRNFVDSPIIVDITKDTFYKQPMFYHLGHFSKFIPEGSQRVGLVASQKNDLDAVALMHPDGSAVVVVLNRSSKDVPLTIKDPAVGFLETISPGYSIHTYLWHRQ
Protocol: Samples were incubated at room temperature for 2
hours before measurement in the Tycho NT6.
Thermostability assays in rhGBA (Cerezyme)
Varying concentrations of peptides were incubated with 1 µM rhGBA1 in 20 mM HEPES pH 7.0 with 100 mM NaCl, with a final DMSO concentration of 0.5 %, for 2 hours at room temperature. Melting

For `Nc1c(Br)cc(Br)cc1CN[C@H]1CC[C@H](O)CC1` [Ambroxol, reference compound], the “stabilisation of rhGBA1 against degradation in plasma” value [1] was “no stabilisation effect” and the “ΔTi,max” value [2] was 12.3 ± 5.4 °C.
